Measured values published in patent publication US10244759B2, “Use of forchlorfenuron for promoting plant growth” (KIM-C1 LLC, priority 2013, dated 2019).
Entries after “also recorded” stand apart in the source; their conditions may differ.

Legend:
[1] = tested on: cotton seeds (G. hirsutum, FiberMax 9058); assay: Cotton seed soak, lateral root development (Example 1); type: in vivo, Gossypium hirsutum
Text: Commercial cotton seeds (G. hirsutum, FiberMax 9058, Bayer CropScience) were submerged in tubs containing forchlorfenuron at concentrations of 0, 25, 50, 100, 250, 500, 1000, 4000 and 8000 ppm for 10 seconds. The seeds were then placed on paper towels on the lab bench and allowed to air dry. Six days after the seed soak, the seeds were planted in “conetainers” and placed in a greenhouse for one week. The soil was removed from the conetainer and the roots were washed by gently dipping the soil into a bucket of water. Roots were photographed and evaluated for lateral root development.

[2] = tested on: Broccoli plants (B. oleracea, var. Waltham 29); assay: Broccoli root length, stem length and ratio thereof (Example 4); type: in vivo, Brassica oleracea; details: for Root Length AB Spray / Root/Stem Ratio AB Spray / Shoot Length AB Spray / Root Length A Spray / Root/Shoot Ratio A Spray / Shoot Length A Spray: percentage of the untreated level, 60 days after planting
Protocol: Broccoli plants (B. oleracea, var. […] The root length and stem length were measured 60 days after planting and the ratio of root length to stem length was calculated for every plant.

Winter wheat [3] = assay: Wheat root dry weight after spray (Example 5); type: in vivo; details: dry weight 50 days after planting, untreated 0.85
Protocol: (§1) Plants were sprayed with 0, 2.5, 5, or 7.5 ppm forchlorfenuron, at the cotyledon growth stage in the case of broccoli or at stage 1 in the case of wheat (treatment A), and optionally again with 5 ppm forchlorfenuron three days thereafter (treatment B). The dry weights of the plant roots were measured 50 days after planting.

Broccoli = Broccoli root dry weight after spray (Example 5); type: in vivo; details: for root weight, Broccoli (AB spray) / root weight, Broccoli (A spray): dry weight 50 days after planting, untreated 0.69
Protocol: as §1

Winter wheat [4] = assay: Winter wheat seed treatment, root weight (Table 3); type: in vivo; details: untreated 0.91
[5] = pH range; cited from earlier work
[6] = tested on: cotton (G. hirsutum, FiberMax 9058); assay: Cotton seedling spray, lateral root development and phytotoxicity (Example 2); type: in vivo, Gossypium hirsutum; details: seedlings sprayed 6 days after planting
Protocol: Commercial cotton seed (G. hirsutum, FiberMax 9058, Bayer CropScience) was planted in conetainers and grown for 6 days prior to spraying with a range of forchlorfenuron concentrations. The plants were grown an additional 5 days prior to washing out the roots. Initial concentrations (0, 5, 10, 15, 20, 25, 50, 100, 250, 500, 1000, and 2000 ppm) were evaluated.

[7] = cited from earlier work
[8] = tested on: Cotton plants (G. hirsutum, FiberMax 9180 B2F); assay: Cotton yield enhancement under abiotic and biotic stresses, boll count (Example 3); type: in vivo, Gossypium hirsutum; details: for number bolls: at harvest; for % increase over control: number bolls
Protocol: Cotton plants grown from commercial cotton seeds (G. hirsutum, FiberMax 9180 […], Bayer CropScience) were treated with forchlorfenuron at various stages of growth. […] Control plants were not treated at any stage of growth. At the time of harvest, cotton bolls on all plants were counted, and the percentages of bolls that were open and closed were calculated.

[9] = treating G. hirsutum seeds or plants
[10] = 2.5 ppm ai at cotyledon stage + 5 ppm 3 days after
[11] = 5 ppm ai at cotyledon stage + 5 ppm 3 days after
[12] = 7.5 ppm ai at cotyledon stage + 5 ppm 3 days after
[13] = 1st square spray, 5 ppm, Day 41

O=C(Nc1ccccc1)Nc1ccnc(Cl)c1 [forchlorfenuron, 1-(2-chloropyridin-4-yl)-3-phenylurea]
rooting patterns / lateral root lengths ([1]; seed treatment 250 ppm vs 0 ppm, eight plants per treatment (FIG. 1)): clear differences in rooting patterns; also recorded: increases in the lateral root lengths
concentration of optimal lateral root production ([1]; seeds submerged 10 seconds, 0-8000 ppm tested): 250 ppm
effect on lateral root development [1, 9]: increased lateral root development
Root Length AB Spray [2, 10]: 104.39%
Root/Stem Ratio AB Spray [2, 10]: 138.67%
Shoot Length AB Spray [2, 10]: 79.98%
Root Length A Spray ([2]; 2.5 ppm ai at cotyledon stage): 91.86%
Root/Shoot Ratio A Spray ([2]; 2.5 ppm ai at cotyledon stage): 94.53%
Shoot Length A Spray ([2]; 2.5 ppm ai at cotyledon stage): 95.25%
Root Length AB Spray [2, 11]: 97.39%
Root/Stem Ratio AB Spray [2, 11]: 124.29%
Shoot Length AB Spray [2, 11]: 90.62%
Root Length A Spray ([2]; 5 ppm ai at cotyledon stage): 100.6%
Root/Shoot Ratio A Spray ([2]; 5 ppm ai at cotyledon stage): 137.48%
Shoot Length A Spray ([2]; 5 ppm ai at cotyledon stage): 80.12%
Root Length AB Spray [2, 12]: 106.69%
Root/Stem Ratio AB Spray [2, 12]: 119.08%
Shoot Length AB Spray [2, 12]: 90.13%
Root Length A Spray ([2]; 7.5 ppm ai at cotyledon stage): 97.46%
Root/Shoot Ratio A Spray ([2]; 7.5 ppm ai at cotyledon stage): 105.16%
Shoot Length A Spray ([2]; 7.5 ppm ai at cotyledon stage): 91.78%
increase in the ratio of root length to stem length above the untreated level ([2]; Treatment A alone at 5 ppm): > 20%
effect on ratio of root length to stem length ([2]; moderate concentrations): increases the ratio of root length to stem length
increase in the ratio of root length to stem length above the untreated level ([2]; treatment A at 2.5 ppm together with treatment B): > 20%
increase in the ratio of root length to stem length above the untreated level ([2]; treatment A at 5 ppm together with treatment B): > 20%
root weight, Winter wheat (AB spray) (Winter wheat [3]; 2.5 ppm ai at stage 1 + 5 ppm 3 days after): 0.76 grams
root weight, Winter wheat (A spray) (Winter wheat [3]; 2.5 ppm ai at stage 1): 0.91 grams
root weight, Winter wheat (AB spray) (Winter wheat [3]; 5 ppm ai at stage 1 + 5 ppm 3 days after): 0.71 grams
root weight, Winter wheat (A spray) (Winter wheat [3]; 5 ppm ai at stage 1): 0.69 grams
root weight, Winter wheat (AB spray) (Winter wheat [3]; 7.5 ppm ai at stage 1 + 5 ppm 3 days after): 0.87 grams
root weight, Winter wheat (A spray) (Winter wheat [3]; 7.5 ppm ai at stage 1): 0.72 grams
root weight, Broccoli (AB spray) (Broccoli; [10]): 0.67 grams
root weight, Broccoli (A spray) (Broccoli; 2.5 ppm ai at cotyledon stage): 0.68 grams
root weight, Broccoli (AB spray) (Broccoli; [11]): 0.79 grams
root weight, Broccoli (A spray) (Broccoli; 5 ppm ai at cotyledon stage): 0.8 grams
root weight, Broccoli (AB spray) (Broccoli; [12]): 0.79 grams
root weight, Broccoli (A spray) (Broccoli; 7.5 ppm ai at cotyledon stage): 0.76 grams
increase in root weight above the untreated level (Broccoli; treatment A at 5 ppm, absence of treatment B): > 10%
increase in root weight above the untreated level (Broccoli; treatment A at 5 ppm, presence of treatment B): > 10%
increase in root weight above the untreated level (Broccoli; treatment A at 7.5 ppm, absence of treatment B): > 10%
increase in root weight above the untreated level (Broccoli; treatment A at 7.5 ppm, presence of treatment B): > 10%
root weight, Winter Wheat Seed Treat. (Winter wheat [4]; 2.5 ppm ai): 0.97 grams
root weight, Winter Wheat Seed Treat. (Winter wheat [4]; 5 ppm ai): 0.81 grams
root weight, Winter Wheat Seed Treat. (Winter wheat [4]; 7.5 ppm ai): 0.86 grams
stability [5]: stable across a wide pH range
concentration with highest lateral root development ([6]; roots washed out 5 days later): 5 ppm
Severe phytotoxicity, application concentration ([6]; 0-2000 ppm tested): above 50 ppm
solubility in water [7]: weakly soluble in water; also recorded: poorly soluble in water
% closed bolls [8, 13]: 56.7%
% open bolls [8, 13]: 43.3%
number bolls [8, 13]: 1096
% closed bolls ([8]; Seed soak, 250 ppm on Day 1): 66.9%
% open bolls ([8]; Seed soak, 250 ppm on Day 1): 33.1%
number bolls ([8]; Seed soak, 250 ppm on Day 1): 1212
number bolls ([8]; Seedling spray, 5 ppm at cotyledon-first leaf stage, Day 21): 1202
% closed bolls ([8]; Seedling spray, 5 ppm, Day 21): 70.5%
% open bolls ([8]; Seedling spray, 5 ppm, Day 21): 29.5%
% increase over control [8, 13]: 1%
% increase over control ([8]; Seed soak, 250 ppm on Day 1): 12%
% increase over control ([8]; Seedling spray, 5 ppm, Day 21): 11%
effect on number of healthy cotton bolls per plant [8, 9]: increased the number of healthy cotton bolls per plant
